Common to all, as to format: in vitro ADME
Data set [1] deals with CYP2C19 (Homo sapiens, UniProt P33261). Put plainly: CYP inhibition, CYP2C19. As to the method: For PK analysis, 5 mg/kg of JH4 in 10% DMSO, 5% […] solution were intravenously injected and 10 mg/kg of JH4 in 10% NMP and 90% PEG400 solution were orally delivered. At pre-set time-points, blood concentration of JH4 was determined by LC-MS/MS analysis[22],[23]. Other chemicals were also tested using similar protocol. In vitro ADME studies (plasma protein binding, CYP inhibition, microsomal stability, plasma stability, and hERG inhibition) were performed by New Drug Development Center (Daegu, Korea) using standard protocols[24],[25].
Sequence of CYP2C19 (P33261 whole entry): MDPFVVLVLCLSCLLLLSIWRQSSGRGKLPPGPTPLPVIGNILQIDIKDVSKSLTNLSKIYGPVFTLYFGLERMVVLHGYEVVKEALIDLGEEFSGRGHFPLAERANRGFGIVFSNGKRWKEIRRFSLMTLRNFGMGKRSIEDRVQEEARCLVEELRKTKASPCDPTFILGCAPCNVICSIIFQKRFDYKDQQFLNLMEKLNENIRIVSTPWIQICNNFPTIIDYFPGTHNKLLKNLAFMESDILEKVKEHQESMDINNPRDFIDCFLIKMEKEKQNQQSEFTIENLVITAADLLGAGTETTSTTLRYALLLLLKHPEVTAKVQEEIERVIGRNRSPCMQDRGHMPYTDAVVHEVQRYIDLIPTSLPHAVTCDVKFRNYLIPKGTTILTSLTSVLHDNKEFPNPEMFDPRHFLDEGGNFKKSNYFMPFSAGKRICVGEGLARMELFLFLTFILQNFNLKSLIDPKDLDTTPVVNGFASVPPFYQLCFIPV

In data set [2] the target is CYP2C9 (Homo sapiens, UniProt P11712). Put plainly: CYP inhibition, CYP2C9. On the set-up: unit not given here. As to the method:
(§1) At pre-set time-points, blood concentration of JH4 was determined by LC-MS/MS analysis[22],[23]. Other chemicals were also tested using similar protocol. In vitro ADME studies (plasma protein binding, CYP inhibition, microsomal stability, plasma stability, and hERG inhibition) were performed by New Drug Development Center (Daegu, Korea) using standard protocols[24],[25].

Data set [3] deals with T1, CYP1A2 (Homo sapiens, UniProt P05177).
T1 sequence (P05177 1-516): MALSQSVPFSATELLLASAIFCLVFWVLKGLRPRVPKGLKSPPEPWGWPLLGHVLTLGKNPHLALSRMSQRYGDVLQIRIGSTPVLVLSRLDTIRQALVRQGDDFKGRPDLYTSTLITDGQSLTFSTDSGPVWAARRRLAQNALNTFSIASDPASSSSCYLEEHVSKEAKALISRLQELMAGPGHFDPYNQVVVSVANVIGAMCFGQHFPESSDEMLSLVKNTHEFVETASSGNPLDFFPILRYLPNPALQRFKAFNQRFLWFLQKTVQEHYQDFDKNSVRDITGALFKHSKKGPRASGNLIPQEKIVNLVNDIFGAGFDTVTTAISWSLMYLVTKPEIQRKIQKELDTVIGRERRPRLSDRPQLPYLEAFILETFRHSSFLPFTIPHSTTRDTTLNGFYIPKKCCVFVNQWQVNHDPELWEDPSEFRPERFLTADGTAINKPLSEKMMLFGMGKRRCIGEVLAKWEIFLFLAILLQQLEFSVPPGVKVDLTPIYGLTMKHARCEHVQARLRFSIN
As to the kind of experiment: CYP inhibition, CYP1A2. As to the method:
as §1

SMILES strings stand for the structures. Values joined by “and” are separate entries in the source; they are usually repeats but may differ in a detail not shown here. Identical values can stand only once.

Sequence of CYP2C9 (P11712 whole entry): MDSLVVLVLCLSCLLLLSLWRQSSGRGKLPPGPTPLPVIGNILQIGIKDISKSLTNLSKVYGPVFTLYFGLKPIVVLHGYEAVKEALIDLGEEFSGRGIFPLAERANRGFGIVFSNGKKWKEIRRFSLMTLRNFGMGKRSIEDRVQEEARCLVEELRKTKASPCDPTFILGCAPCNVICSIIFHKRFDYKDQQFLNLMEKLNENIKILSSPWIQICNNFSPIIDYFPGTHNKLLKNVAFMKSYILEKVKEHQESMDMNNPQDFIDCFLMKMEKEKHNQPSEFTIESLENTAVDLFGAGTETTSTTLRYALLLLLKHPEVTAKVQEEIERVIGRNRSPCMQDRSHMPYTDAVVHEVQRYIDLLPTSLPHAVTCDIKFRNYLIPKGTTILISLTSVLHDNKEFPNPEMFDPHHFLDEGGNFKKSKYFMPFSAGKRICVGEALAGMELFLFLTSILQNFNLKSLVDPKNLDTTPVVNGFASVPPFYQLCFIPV

As for `CC(=O)N1CCN(c2ccc(OCC3COC(Cn4ccnc4)(c4ccc(Cl)cc4Cl)O3)cc2)CC1` (stereo not drawn) [Ketoconazole, reference compound], the CYP inhibition is 99.5 and > 100 in data set [1]; 100 in data set [2]; 99.1 in data set [3].

These data come from publication PMC7782499, “Progerinin, an optimized progerin-lamin A binding inhibitor, ameliorates premature senescence phenotypes of Hutchinson-Gilford progeria syndrome” (Communications Biology, 2021).
